From patent US20080281104A1, “Membrane-Anchoring Fluorescent Probe” (THE UNIVERSITY OF TOKYO, priority 2005, published 2008)

What was measured:
HeLa cell membranes = assay: Function as NO probe on cell membrane (NOC13 addition); format: cell-based; settings: 7.5 μmol/L probe, PBS(+) pH 7.4, NOC13 100 μmol/L at 120 seconds and 1 mmol/L at 1,800 seconds, HeLa cells (FIG. 6)
Experimental: To 1 mL of an extracellular fluid (pH 7.4, PBS (+)) loaded with DAF-PIP-DPPE (7.5 μmol/L) was added NOC13 solution (500 μL) prepared before use.

HeLa cells = assay: Fluorescence intensity change of loaded cells on extracellular pH change; format: cell-based; settings: extracellular fluid pH from 7.4 to 6.7 to 6.4, loaded cells, fluorescence microscope (FIG. 5)
Experimental: As a control experiment, a fluorescein ester derivative (fluorescein diacetate), which can penetrate cell membranes and undergo hydrolysis by cytoplasmic esterase to distribute fluorescein intracellularly, was loaded on the cells, then the cells were treated in the same manner.

[1] = Fluorescence time course of reaction with NO released from NOC13; settings: 1.27 μmol/L in PBS(−), 37° C., NOC13 5, 50, 100, 500 μmol/L (FIG. 2)
Experimental: To a 1.27 μmol/L DAF-PIPA PBS(−) solution at 37° C. was added NOC13 as a sustained release-type NO releasing agent at concentrations of 5 μmol/L, 50 μmol/L, 100 μmol/L, and 500 μmol/L, respectively, and change in the reaction with NO over time was measured.

Compound: CCCCCCCCCCCCCCCC(=O)OC[C@H](COP(=O)(O)OCCNC(=O)C1CCN(C(=O)c2cc(N)c(N)cc2-c2c3ccc(=O)cc-3oc3cc(O)ccc23)CC1)OC(=O)CCCCCCCCCCCCCCC [DAF-PIP-DPPE]
- fluorescence intensity change on cell membranes after NOC13 (HeLa cell membranes): Marked increase in the fluorescence intensity

Compound: CC(=O)Oc1ccc2c(c1)Oc1cc(OC(C)=O)ccc1C21OC(=O)c2ccccc21 [fluorescein diacetate]
- decrease in fluorescence intensity according to pH change of extracellular fluid (HeLa cells): no change in fluorescence intensity

Compound: DAF-piperidinic Acid [DAF-PIPA]
- change in fluorescence intensity on reaction with NO [1]: became larger in a NO concentration-dependent manner
